Reference: publication PMC5964033 (Journal of inorganic biochemistry, 2018)
“And” between values parts separate entries of the source, which are not always exact repeats. Equal values may be shown once. “Also recorded” adds a separate entry of the source. Read-outs that look alike come from different tables or passages of the source.

Columns and labels:
CYP2J2 [1] = target: T1, CYP2J2 (Homo sapiens, UniProt P51589); settings: at saturating concentrations, CYP2J2-NDs
T1 sequence (P51589 1-502): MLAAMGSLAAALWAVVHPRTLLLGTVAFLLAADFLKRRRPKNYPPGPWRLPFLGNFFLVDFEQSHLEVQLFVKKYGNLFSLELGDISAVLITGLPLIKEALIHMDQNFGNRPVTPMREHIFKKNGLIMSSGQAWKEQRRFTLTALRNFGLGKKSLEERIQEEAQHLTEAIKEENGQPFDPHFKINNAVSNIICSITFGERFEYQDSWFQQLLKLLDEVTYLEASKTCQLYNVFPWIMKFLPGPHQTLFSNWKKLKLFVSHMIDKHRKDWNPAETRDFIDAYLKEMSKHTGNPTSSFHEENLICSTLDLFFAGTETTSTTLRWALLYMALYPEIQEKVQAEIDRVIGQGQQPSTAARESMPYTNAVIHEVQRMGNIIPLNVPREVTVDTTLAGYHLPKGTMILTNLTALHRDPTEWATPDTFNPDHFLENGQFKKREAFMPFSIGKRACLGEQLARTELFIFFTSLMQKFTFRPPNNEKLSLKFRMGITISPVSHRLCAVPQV

CYP2J2 [2] = target: T1, CYP2J2; type: in vitro ADME
CYP2J2 [3] = target: T1, CYP2J2; assay: Inhibition of CYP2J2-mediated AEA metabolism by pCBs; type: biochemical; settings: for Type of AEA Metabolism Inhibition / Ki: 30 µM pCB; for Type of AEA Metabolism Inhibition: model of inhibition; for Ki: CYP2J2-ND/CPR; for apparent Vmax of AEA metabolism, % of the uninhibited enzyme: in the presence of 30 µM pCB
CYP2J2 [4] = target: T1, CYP2J2; settings: formation of mono-oxygenated product; for Vmax: 5–60 µM pCB, 30 min, 37°C
CYP2J2 [5] = target: T1, CYP2J2; assay: Identification of pCB metabolites formed by CYP2J2; type: in vitro ADME; settings: major mono-oxygenated product(s) of CYP2J2 metabolism
[6] = test system: fatty acid amide hydrolase (FAAH); settings: cited from earlier work
CYP2J2 [7] = target: T1, CYP2J2; assay: biochemical
Rhesus monkeys = settings: cited from earlier work
CYP2J2 [8] = target: T1, CYP2J2; settings: directly from Soret titration or through inhibition of ebastine binding
humans = settings: cited from earlier work
other animal models = settings: cited from earlier work
not read [9] = substrate: CCCCC/C=C\C/C=C\C/C=C\C/C=C\CCCC(=O)NCCO; assay: not read; type: in vitro ADME; settings: other: total EET-EAs formed, CYP2J2-ND/CPR; pH 7.4
not read [10] = substrate: CCCCCc1cc(O)c(C/C=C(\C)CCC=C(C)C)c(O)c1; assay: not read; settings: other: formation of mono-oxygenated product; pH 7.4; 37.0 °C
[11] = read-out: Ki, AEA Metabolism Inhibition

## CCCCC/C=C\C/C=C\C/C=C\C/C=C\CCCC(=O)NCCO [AEA, anandamide]
CYP2J2 [1]
  high-spin shift: did not produce a significant change in the high-spin content
CYP2J2 [2]; AEA metabolism by CYP2J2-NDs
  Metabolite(s): EET-EAs
CYP2J2 [2]; total EET-EAs formed, CYP2J2-ND/CPR
  Vmax: 135 ± 14.0 pmol · min^−1 · nmolCYP2J2^−1 and 135 ± 14 pmol · min^−1 · nmolCYP2J2^−1

## CCCCCc1cc(O)c2c(c1)OC(C)(CCC=C(C)C)C=C2 (stereo not drawn) [CBC, cannabichromene]
CYP2J2 [3]
  Type of AEA Metabolism Inhibition: Noncompetitive
  apparent Vmax of AEA metabolism, % of the uninhibited enzyme: 20–45%
CYP2J2 [3]; Ki, AEA Metabolism Inhibition
  Ki: 21.1 ± 1.4 µM
CYP2J2 [4]
  Vmax: 371 ± 134 pmol · min^−1 · nmolCYP2J2^−1
CYP2J2 [1]
  high-spin shift: did not produce a significant change in the high-spin content
CYP2J2 [5]
  Metabolite(s): -1”-OH

## C=C(C)[C@@H]1CCC(C)=C[C@H]1c1c(O)cc(CCCCC)cc1O [CBD, cannabidiol, reference compound]
CYP2J2 [3]
  Type of AEA Metabolism Inhibition: Noncompetitive
  apparent Vmax of AEA metabolism, % of the uninhibited enzyme: 20–45%
CYP2J2 [3]; Ki, AEA Metabolism Inhibition
  Ki: 16.9 ± 1.1 µM
CYP2J2 [4]
  Vmax: 372 ± 100 pmol · min^−1 · nmolCYP2J2^−1
[6]
  inhibition of FAAH: weakly inhibited
CYP2J2 [1]
  high-spin shift: 32%
CYP2J2 [5]
  Metabolite(s): -7-OH + -1”-OH
CYP2J2 [7]
  Kd: 11.5 ± 3 µM

## CCCCCc1cc(O)c(C/C=C(\C)CCC=C(C)C)c(O)c1 [CBG, cannabigerol]
CYP2J2 [3]
  Type of AEA Metabolism Inhibition: competitively; also recorded: Competitive
CYP2J2 [3]; Ki, AEA Metabolism Inhibition
  Ki: 10.8 ± 1.4 µM
CYP2J2 [4]
  Vmax: 123 ± 14 pmol · min^−1 · nmolCYP2J2^−1
CYP2J2 [1]
  high-spin shift: 48%
CYP2J2 [5]
  Metabolite(s): -1”-OH
CYP2J2 [7]
  Kd: 11.1 ± 1.2 µM

## CCCCCc1cc(O)c2c(c1)OC(C)(C)c1ccc(C)cc1-2 [CBN, cannabinol]
CYP2J2 [3]
  Type of AEA Metabolism Inhibition: Noncompetitive
  apparent Vmax of AEA metabolism, % of the uninhibited enzyme: 20–45%
CYP2J2 [3]; Ki, AEA Metabolism Inhibition
  Ki: 19.4 ± 2 µM
CYP2J2 [1]
  high-spin shift: 38%
CYP2J2 [5]
  Metabolite(s): -1’-OH or -11-OH

## CCCCCc1cc(O)c2c(c1)OC(C)(C)[C@@H]1CC=C(C)C[C@@H]21 [Δ8-THC, Δ8-tetrahydrocannabinol]
CYP2J2 [3]
  Type of AEA Metabolism Inhibition: Noncompetitive
  apparent Vmax of AEA metabolism, % of the uninhibited enzyme: 20–45%
CYP2J2 [3]; [11]
  Ki: 20.2 ± 1.9 µM
CYP2J2 [4]
  Km: 8.52 ± 5.3 µM
  Vmax: 80.9 ± 14.3 pmol · min^−1 · nmolCYP2J2^−1
CYP2J2 [1]
  high-spin shift: did not produce a significant change in the high-spin content
CYP2J2 [5]
  Metabolite(s): -1’-OH

## CCCCC(O)c1cc(O)c2c(c1)OC(C)(C)C1CC=C(C)CC21 (stereo not drawn) [Δ8-THC-1’-OH]
Rhesus monkeys
  induction of behavioral changes associated with cannabis use: least effective

## CCCCCc1cc(O)c2c(c1)OC(C)(C)[C@@H]1CCC(C)=C[C@@H]21 [Δ9-THC, Δ9-tetrahydrocannabinol, reference compound]
CYP2J2 [8]
  binding affinity: weakest
CYP2J2 [3]
  Type of AEA Metabolism Inhibition: Noncompetitive
  apparent Vmax of AEA metabolism, % of the uninhibited enzyme: 20% and 20–45%
CYP2J2 [3]; [11]
  Ki: 9.86 ± 0.45 µM
CYP2J2 [4]
  Km: 11.9 ± 4.8 µM
  Vmax: 211 ± 28 pmol · min^−1 · nmolCYP2J2^−1
CYP2J2 [1]
  high-spin shift: did not produce a significant change in the high-spin content
humans
  effect on heart rate in humans: induces tachycardia
CYP2J2 [5]
  Metabolite(s): -1’-OH
Other animal models
  effect on heart rate in other animal models: induces bradycardia

B1: CYP2J2 (Homo sapiens) (protein)
chain: T1 sequence (P51589 1-502)
Not read [9]
  Km: 30.9 ± 7.3 µM
Not read [10]
  Km: 8.27 ± 3.24 µM
